# Test results published in publication PMC8033486 (Frontiers in Pharmacology, 2021).
# Counter-ions that a name gives are not always drawn. Like-named read-outs stand apart in the source and are kept apart here. *1 amine or outer side, *2 acyl side, *3 side chain or, on linkers, in order; H or OH if unused. Where a SMILES comes first, the peptide text is derived from it. Bridges are numbered along the chain shown (N, C = ends). [ ]: non-standard residue; d: D form. The star is where a group is joined. X1 = CC[C@H](C)[C@@H](N[*:1])[C@@H](O)CC(=O)O[C@H](C(=O)[C@H](C)C(=O)[*:2])C(C)C; NMeY = CN[C@@H](Cc1ccc(O)cc1)C(=O)O; dNMeL = CN[C@H](CC(C)C)C(=O)O; Pyruvoyl = CC(=O)C(=O)*; Cbz = O=C(OCc1ccccc1)*
# Experiments:
# SARS-CoV-2 = test: microbe, parasite or virus in culture; format: cell-based
# in vitro = settings: African green monkey
# [1] = Severe acute respiratory syndrome coronavirus 2, Vero C1008, 72 h, Vero E6, cytopathic effect 3 days after infection, repeated experiments, read-out: IC50 (Mean +/- SD)
# [2] = Severe acute respiratory syndrome coronavirus 2, Vero C1008, Vero E6, one representative experiment with two replicates, when combined, each drug at the same concentration, read-out: IC50 value of the particular graph
# [3] = Vero E6, cytopathic effect 3 days after infection, repeated experiments, read-out: IC50 (Mean +/- SD)
# [4] = CC50, Vero E6, no virus, 3 days
# [5] = Severe acute respiratory syndrome coronavirus 2, Vero C1008, 72 h, read-out: IC50 (Mean +/- SD)
# [6] = Vero E6, cytopathic effect 3 days after infection, repeated experiments
Compound,CC50 at 3 days (in vitro; [4]) [µM],IC50 (Mean +/- SD) (SARS-CoV-2),"Inhibition of SARS-CoV-2-induced cytopathic effect, result in words (SARS-CoV-2; Vero E6)",further results
CCC(C)n1ncn(-c2ccc(N3CCN(c4ccc(OCC5COC(Cn6cncn6)(c6ccc(Cl)cc6Cl)O5)cc4)CC3)cc2)c1=O (centres unmarked) [Itraconazole],> 100,,,IC50 (SARS-CoV-2; [1]): 79.4 µM; IC50 (SARS-CoV-2; [2]): 79.4 µM; IC50 (SARS-CoV-2; [3]): 80 µM
N#Cc1ccccc1-c1cc(-c2ccccn2)cn(-c2ccccc2)c1=O [Perampanel],,Not Active,,
CC(=O)N[C@H]1C([C@H](O)[C@H](O)CO)O[C@@](O[C@@H]2C(O)[C@H](O[C@@H]3C(CO)OC(O)C(O)[C@H]3O)OC(CO)[C@@H]2O)(C(=O)[O-])C[C@H]1O.[Na+] (some centres unmarked) [3’ Sialyllactose Na Salt],,,not able to reduce viral-induced cytopathic effect,
CCN(CC)CCCC(C)Nc1c2ccc(Cl)cc2nc2ccc(OC)cc12 (centres unmarked) [Quinacrine dihydrochloride],> 6,,,
C[C@@H]1CCN(C(=O)CC#N)C[C@@H]1N(C)c1ncnc2[nH]ccc12 [Tofacitinib],> 100,,failed to protected Vero E6 cells from SARS-CoV-2 induced cytopathic effect,
CCOC(=O)C1=C(CN2CCOCC2)NC(c2nccs2)=NC1c1ccc(F)cc1Br (centres unmarked) [Morphothiadine],,Not Active,,
CCC(CC)COC(=O)[C@H](C)N[P@](=O)(OC[C@H]1O[C@@](C#N)(c2ccc3c(N)ncnn23)[C@H](O)[C@@H]1O)Oc1ccccc1 [Remdesivir],,,,IC50 (SARS-CoV-2; [2]): 1.2 µM; IC50 (SARS-CoV-2; [3]): < 10 µM; CC50 (in vitro): > 85 µM
CCN(CCO)CCCC(C)Nc1ccnc2cc(Cl)ccc12 (centres unmarked) [Hydroxychloroquine],> 80,,able to inhibit viral-induced cytopathic effects at concentrations where no cytotoxic effects of the drug were observed,IC50 (SARS-CoV-2; [1]): 9.3 ± 11.1 µM; IC50 (SARS-CoV-2; [2]): 2.1 µM
CC(C)[C@H](NC(=O)OCc1ccccc1)C(=O)N[C@H](C=O)Cc1ccccc1 [MDL 28170] (Cbz-Val-Phe-aldehyde),,,activity in the nanomolar range,"IC50 (SARS-CoV-2; [5]): 0.14 µM; IC50 (SARS-CoV-2; Severe acute respiratory syndrome coronavirus 2, Vero C1008, read-out: IC50 value of the particular graph, Vero E6, one representative experiment with two replicates, when combined, each drug at the same concentration): 0.2 µM; CC50 (in vitro): > 87 µM"
COc1cc2c(c(OC)c1OC)-c1ccc(OC)c(=O)cc1[C@@H](NC(C)=O)CC2 [Colchicine],,,,CC50 (in vitro): 0.63 µM
COC[C@H]1C[C@@H](c2ncc(-c3ccc4c(c3)COc3cc5c(ccc6nc([C@@H]7CC[C@H](C)N7C(=O)[C@@H](NC(=O)OC)C(C)C)[nH]c65)cc3-4)[nH]2)N(C(=O)[C@H](NC(=O)OC)c2ccccc2)C1 [Velpatasvir],,,,CC50 at 3 days (in vitro; CC50): > 10 µM
CC(C)OC(=O)[C@H](C)N[P@](=O)(CO[C@H](C)Cn1cnc2c(N)ncnc21)Oc1ccccc1 [Tenofovir Alafenamide],,Not Active,,"Inhibition of SARS-CoV-2-induced cytopathic effect, result in words (SARS-CoV-2): failed to show any antiviral effect; CC50 (in vitro): > 100 µM"
COc1cc(C2Oc3cc([C@H]4Oc5cc(O)cc(O)c5C(=O)[C@@H]4O)ccc3OC2CO)ccc1O (some centres unmarked) [Silibinin],> 20,,,
CC(C)(C)NC(=O)[C@@H]1C[C@@H]2CCCC[C@@H]2CN1C[C@@H](O)[C@H](Cc1ccccc1)NC(=O)[C@H](CC(N)=O)NC(=O)c1ccc2ccccc2n1 [Saquinavir],> 28,,,
COc1c(O[C@@H]2O[C@H](CO)[C@@H](O)[C@H](O)[C@H]2O)cc2c(c1OC)-c1ccc(SC)c(=O)cc1[C@@H](NC(C)=O)CC2 [Thiocolchicoside],,Not Active,,
CC(=O)N[C@@H](CS)C(=O)O [N-Acetil cystein],,Not Active,,
interferon-γ [IFN stimulated antivirus proteins; granulomatous disease],,,displayed antiviral activity,
NC12CC3CC(CC(C3)C1)C2 [Amantadine],> 100,,only a partial inhibition at 100 μM,
CC(C)CN(C[C@@H](O)[C@H](Cc1ccccc1)NC(=O)O[C@H]1CO[C@H]2OCC[C@H]21)S(=O)(=O)c1ccc(N)cc1 [Darunavir],,partially active at 100,,
CC1SCC(C(=O)NC(Cc2cnc[nH]2)C(=O)N2CCCC2C(N)=O)NC1=O.O=C(O)C(F)(F)F (centres unmarked) [Montirelin trifluoroacetate salt],,Not Active,,
Laflunimus Sodium Salt,,Not Active,,
"O=C(O)c1nn(Cc2ccc(Cl)cc2Cl)c2ccccc12 [Diclondazolic acid (Lonidamine), Diclondazolic acid]",,Not Active,,

Compound,CC50 at 3 days (in vitro; [4]) [µM],IC50 (Mean +/- SD) (SARS-CoV-2),"Inhibition of SARS-CoV-2-induced cytopathic effect, result in words (SARS-CoV-2; Vero E6)",further results
NC(=O)c1nc(F)c[nH]c1=O [Favipiravir],,,only partial inhibitory activity at the non-toxic concentration of 100 µM,CC50 at 3 days (in vitro; CC50): > 100 µM
NC(N)=Nc1nc(CSCCC(N)=NS(N)(=O)=O)cs1 [Famotidine],> 100,,,IC50 (Mean +/- SD) (SARS-CoV-2; [6]): Not Active
CN(C)[C@@H]1C(O)=C(C(N)=O)C(=O)[C@@]2(O)C(O)=C3C(=O)c4c(O)c(NC(=O)CN5CCCC5)cc(F)c4C[C@H]3C[C@@H]12 [Eravacycline],> 4,,,
OC(Cn1cncn1)(Cn1cncn1)c1ccc(F)cc1F [Fluconazol],> 100,,,
CCS(=O)(=O)N1CC(CC#N)(n2cc(-c3ncnc4[nH]ccc34)cn2)C1 [Baricitinib],,,,CC50 (in vitro): > 85 µM
Ivermectin,,Not Active,,
CC[C@H]1OC(=O)[C@H](C)[C@@H](O[C@H]2C[C@@](C)(OC)[C@@H](O)[C@H](C)O2)[C@H](C)[C@@H](O[C@@H]2O[C@H](C)C[C@H](N(C)C)[C@H]2O)[C@](C)(O)C[C@@H](C)CN(C)[C@H](C)[C@@H](O)[C@]1(C)O [Azithromycin],> 100,,,
O=C(Nc1ccc([N+](=O)[O-])cc1Cl)c1cc(Cl)ccc1O [Niclosamide],> 9,,failed to protected Vero E6 cells from SARS-CoV-2 induced cytopathic effect,
CN(C)C(=O)c1cc2cnc(Nc3ccc(N4CCNCC4)cn3)nc2n1C1CCCC1 [Ribociclib],> 20,Not Active,,
OC(c1cc(C(F)(F)F)nc2c(C(F)(F)F)cccc12)C1CCCCN1 (centres unmarked) [Mefloquine hydrochloride],> 100,,,
CCOC(=O)Cn1cccc1-c1nc(-c2ccc(OC)cc2)c(-c2ccc(OC)cc2)s1 [Pamicogrel],,,,CC50 at 3 days (in vitro; CC50): 6.4 µM
CCCCOc1nc(N)c2c(n1)N(Cc1cccc(CN3CCCC3)c1)CC(=O)N2 [Vesatolimod],> 20,,not able to protect from the viral-induced cytopathic effect,
CC[C@H](C)[C@H]1NC(=O)[C@@H](NC(=O)[C@@H](CC(C)C)N(C)C(=O)[C@@H]2CCCN2C(=O)C(C)=O)[C@@H](C)OC(=O)[C@H](Cc2ccc(OC)cc2)N(C)C(=O)[C@@H]2CCCN2C(=O)[C@H](CC(C)C)NC(=O)[C@@H](C)C(=O)[C@H](C(C)C)OC(=O)C[C@@H]1O [Plitidepsin] (Pyruvoyl-P[dNMeL]T[X1]LP[NMeY](Me); ester 3-C),,,always in nM concentrations,IC50 (SARS-CoV-2; [5]): 0.06 µM; IC50 (SARS-CoV-2; [2]): 0.05 µM; CC50 (in vitro): > 0.1 µM
Nc1nc(=O)n([C@@H]2CS[C@H](CO)O2)cc1F [Emtricitabine],> 100,,failed to show any antiviral effect,IC50 (Mean +/- SD) (SARS-CoV-2; [6]): Not Active
Cc1cccc(C)c1OCC(=O)N[C@@H](Cc1ccccc1)[C@@H](O)C[C@H](Cc1ccccc1)NC(=O)[C@H](C(C)C)N1CCCNC1=O [Lopinavir],> 87,,inhibited SARS-CoV-2-induced cytopathic effect at the non-toxic concentration of 20 μM,
Nc1ncnc2c([C@@H]3N[C@H](CO)[C@@H](O)[C@H]3O)c[nH]c12 [Galdesivir],,Not Active,no antiviral effect,
CC(=O)c1c(C)c2cnc(Nc3ccc(N4CCNCC4)cn3)nc2n(C2CCCC2)c1=O [Palbociclib],2.7,,,
C[C@H]1c2cccc(O)c2C(=O)C2=C(O)[C@]3(O)C(=O)C(C(N)=O)=C(O)[C@@H](N(C)C)[C@@H]3[C@@H](O)[C@@H]21 [Doxycycline],> 100,,,
Methyl-ß-cyclodextrin,,active at 1000,abrogate SARS-CoV-2 induced cytopathic effect,
CC(C)(C)NC(=O)N[C@H](C(=O)N1C[C@H]2[C@@H]([C@H]1C(=O)NC(CC1CCC1)C(=O)C(N)=O)C2(C)C)C(C)(C)C (some centres unmarked) [Boceprevir],,,,CC50 at 3 days (in vitro; CC50): > 100 µM
CC(C)CN(C[C@@H](OP(=O)(O)O)[C@H](Cc1ccccc1)NC(=O)O[C@H]1CCOC1)S(=O)(=O)c1ccc(N)cc1 [Fosamprenavir Calcium],> 25,,,
